Results published in patent US7514432B2, “Compounds and methods of treating cell proliferative diseases, retinopathies and arthritis” (Exonhit Therapeutics SA, priority 2003, dated 2009).

Tests used:
HCT116 = experiment: Cell viability assay (MTT), HCT116; type: cell-based, human; conditions: 1% DMSO
Procedure: (§1) Table 12: 6-day cell viability assay (MTT) in the presence of 10% Fetal Bovine Serum and 1% DMSO, in HMEC1, HCT116, MDA-MB-231, MCF7 and NIH3T3 cell lines. 3 10^3 to 15 10^3 cells were seeded in 48-well plates in growth medium containing 10% FBS, with or without various concentrations of test compounds. Cell cultures were fed every 3 days with the appropriate media. Cell viability was determined on day 6. Data were analyzed and IC50s were calculated from dose-response curves using GraphPad Prism. Results summarized in the tables are mean±SEM of 1 to 8 independent experiments.
(§2) Table 13: 6-day cell viability assay (MTT) in the presence of 0.5% Fetal Bovine Serum and 1% DMSO, in HCT116 and MDA-MB-231 cell lines. 7.5 10^4 to 15 10^4 cells were seeded in 48-well plates in growth medium containing 10% FBS, with or without various concentrations of test compounds. Cell cultures were fed every 3 days with the appropriate media. Cell viability was determined on day 6. Data were analyzed and IC50s were calculated from dose-response curves using GraphPad Prism. Results summarized in the tables are mean±SEM of 1 to 2 independent experiments.
(§3) Table 14: 3-day cell viability assay (MTT) in the presence of 10% Fetal Bovine Serum and 1% DMSO, in DLD1, HCT116, MDA-MB-231, MCF7 and HeLa cells. 7.5 10^3 to 1.5 10^4 cells were seeded in 48-well plates in growth medium containing 10% FBS, with or without various concentrations of test compounds. Data were analyzed and IC50s were calculated from dose-response curves using GraphPad Prism. Results summarized in the tables are mean±SEM of 1 to 7 independent experiments.
(§4) Table 15: 16-hour cell viability assay (MTT) in the presence of 10% Fetal Bovine Serum and 1% DMSO, in HCT116, MDA-MB-231, NIH3T3, HepG2 and primary hepatocytes. 5 10^4 to 10 10^4 cells were seeded in 48-well plates in growth medium containing 10% FBS, with or without various concentrations of test compounds. Data were analyzed and IC50s were calculated from dose-reponse curves using GraphPad Prism. Results summarized in the tables are mean±SEM of 1 to 2 independent experiments.
(§5) In order to determine a compound's effect on cell viability, microculture tetrazolium assays (MTT) were performed as described by Carmichael et al. (1996) with modifications. Four human tumoral cell lines, namely HCT116 colon adenocarcinoma, H460 lung carcinoma, MCF-7 and MDA-MB-231 breast carcinoma cell lines, DLD1 colorectal adenocarcinoma, HeLa adenocarcinoma, HepG2 hepatocellular carcinoma. 3 immortalized but non tumorigenic cell lines, namely NIH3T3 mouse fibroblasts (American Type Culture Collection) and primary hepatocytes (Biopredic international), cultured according to their recommendations together with Human Microvasculature Endothelial Cell line HMEC1 (National Center for Infectious Diseases). Briefly, cells were seeded in 48-well plates 24 hours before drug addition. Cells were treated with 0 to 200 μM (11 concentrations) of compound solubilized in DMSO, adjusting the final concentration of DMSO to 1% in the well. 16 hours, and three or six days after treatment, 0.5 mg/ml MTT (Sigma) was added to the medium and cells were incubated for 1-5 hours at 37° C. before solubilization of formazan crystals in 100% DMSO. Absorbance was measured using a spectrophotometer at a wavelength of 550 nm. Data was analyzed using the GraphPad Prism software (GraphPad Software, Inc.), and IC50 (dose leading to 50% cell death) was calculated from the dose-response curves.

DLD1 = experiment: Cell viability assay (MTT), DLD1; type: cell-based; conditions: Homo sapiens, DLD-1, 72 h, 10% FBS, 3-day treatment, 1% DMSO
Procedure: as §3, §5

HMEC1 = experiment: Cell viability assay (MTT), HMEC1; type: cell-based, Human; conditions: 10% FBS; for IC50: MTT, 6-day treatment, 1% DMSO
Procedure: as §1, §5

MDA-MB-231 [1] = experiment: Cell viability assay (MTT), MDA-MB-231; type: cell-based, human; conditions: 10% FBS, 6-day treatment, 1% DMSO, read-out: IC50 μM, MDA-MB-231
Procedure: as §1, §2, §3, §4, §5

HMEC-1 cells = experiment: Tubule formation (tubulogenesis) assay on Matrigel; type: cell-based, Human
Procedure: FIG. 5: Tubulogenesis assay (number of junctions). 2 10^4 Cells were plated on Matrigel-coated wells as described in the material and methods. Pictures of each well were taken after a 7-hours incubation. The “number of junctions” parameter was quantitated using the AngioSys software and data were analyzed using GraphPad Prism for IT50 calculation. Values represent the mean±SEM of 2 to 30 independent experiments.
The endothelial cell tube formation assay, or tubulogenesis assay, is an in vitro assay that is widely accepted to accurately reflect number of terminal stages of the angiogenic process such as attachment, migration and differentiation into tubular structures. In this model, endothelial cells are cultured on a monolayer of reconstituted basement membrane components (Matrigel) and form, in a few hours, capillary-lilke structure. Therefore, this system is a useful and powerful tool for rapidly screening anti-angiogenic agents by monitoring inhibition of endothelial cells morphogenesis on extracellular matrix.
HMEC-1 cell line is cultured in MCDB-131 medium (Sigma) supplemented with 15% FBS, 10 ng/ml recombinant human epidermal growth factor (Invitrogen) and 1 μg/ml hydrocortisone. Cells are cultured to 70-80% confluence. A 96-well plate was coated with Matrigel® Basement Membrane Matrix (Becton Dickinson). 2 10^4 HMEC-1 cells were seeded into each well. The test or control compounds were diluted in DMSO and added to the coated plate. The plate was subsequently incubated for 6 to 8 hours at 37° C., 5% CO2 atmosphere to allow tubule formation. The cells were then incubated with 1.25 μg/ml Calcein AM for 15 minutes at 37° C., 5% CO2. Pictures of each well were taken using a fluorescent microscope and a digital camera (Nikon Coolpix 990). Images were analysed using AngioSys software (TCS Cellworks) that allows quantification of the total tubule length and of the number of junctions, two parameters representative of tubule formation/disruption. Data was analyzed using the GraphPad Prism software, and IT50s (dose leading to 50% inhibition of tubulogenesis) was calculated.

NIH 3T3 = experiment: Cell viability assay (MTT), NIH 3T3; type: cell-based, mouse; conditions: 10% FBS, 6-day treatment, 1% DMSO
Procedure: as §1, §4, §5

MCF7 = experiment: Cell viability assay (MTT), MCF7; type: cell-based; conditions: Homo sapiens, MCF7, 144 h, 10% FBS, 6-day treatment, 1% DMSO
Procedure: as §1, §3, §5

NIH3T3 = experiment: Boyden chamber migration assay, NIH3T3; type: cell-based, mouse; conditions: FBS as chemoattractant
Procedure: (§6) FIG. 4: Migration assays. (A) Wound healing assay in REF cells. 7.6 10^4 cells were plated on coverslips 48 hours before the experiment. The cells were pre-treated for 30 min. with the compounds, and then a scrape was done using a pipette tip. The scraped coverslips in treatment medium were put under a thermostated microscope coupled to a video camera. Movies were analyzed as described in material and methods, and velocity and total distance covered by the cells were evaluated. Bar graphs represent the mean±SEM of 2 to 4 experiments. (B) Boyden chamber migration assay in HMEC1, NIH3T3 and MDA-MB-231 cells. 5 10^4 to 7.5 10^4 Cells, resuspended in culture medium with or without FBS and with different compound concentrations, were seeded in the upper Boyden blind well on top of 8 μm pore-sized filters. The ability of the cells to migrate through the filter was assayed in the absence or presence of FBS in the lower Boyden chamber. After 16 hours incubation, the medium was removed and replaced with calcein-AM containing medium. After labeling, cells were washed with HBSS and fluorescence was read in a fluorescence plate reader. Fluorescence values were normalized against the fluorescence obtained for the 1% DMSO control. The data plotted are the means±SEM of 2 to 4 independent experiments.
(§7) An essential characteristic of malignant cells is their ability to migrate, invade host tissues and to produce metastases. In order to evaluate the capacity of one compound to affect the ability of tumoral cells to migrate, migration assays were performed using highly invasive tumoral cells MDA-MB-231, endothelial cells HMEC1 or fibroblastic cells NIH3T3. This assay was performed using Falcon HTS Fluoroblock inserts. Culture medium containing Fetal Bovine Serum (FBS; which is used as a chemoattractant) was added to the plate wells and 2 10^4 to 7.5 10^4 cells resuspended in medium without FBS and with 0.1% BSA were added to each insert well. The compound of interest was added to the medium in both the upper and the lower chambers. Plates were incubated for 16 hours at 37° C. Following incubation, the medium was removed from the upper chamber and the entire insert plate was transferred to a second 24-well plate containing 4 μg/ml Calcein-AM™ in medium containing 0.1% BSA. The plates were incubated for one hour at 37° C., rinsed with Hanks Buffered Saline (HBSS). Fluorescence data were collected using Fluoroskan Ascent FL fluorescence plate reader at an excitation wavelength (Ex) of 485 nm and emission wavelength (Em) of 517 nm. Only those labelled cells that passed through the Matrigel layer and the membrane were detected. Data were analyzed using the GraphPad Prism software and IM50s (dose at which 50% inhibition of cell migration is observed) were calculated.

MDA-MB-231 [2] = experiment: Boyden chamber migration assay, MDA-MB-231; type: cell-based, human; conditions: FBS as chemoattractant; 16 hours
Procedure: as §6, §7

[3] = Homo sapiens, HCT-116, 144 h, 10% FBS, 6-day treatment
[4] = Homo sapiens, MDA-MB-231, 144 h

Compound	IC50 (HCT116; 10% FBS, 6-day treatment) [µM]	IC50 (HCT116; [3]) [µM]	IC50 (HMEC1; Homo sapiens, HMEC-1, 144 h) [µM]	IC50 (MDA-MB-231 [1]) [µM]	IC50 (MDA-MB-231 [1]; [4]) [µM]	IC50 (NIH 3T3; Mus musculus, NIH3T3, 144 h) [µM]	IC50 (HMEC1) [µM]	further results
O=c1[nH]cc(F)c(=O)[nH]1 [5FU, 5-FluoroUracile, reference compound]								IC50 (HCT116; Homo sapiens, HCT-116, 72 h, 10% FBS, 3-day treatment): 7.83 µM; IC50 (DLD1): 5.44 µM
O=c1cc(CN2CCOCC2)occ1OCc1ccc(CSc2ccnc3cc(C(F)(F)F)ccc23)cc1 [EHT 2218, 5-((4-((7-(Trifluoromethyl)quinolin-4-ylthio)methyl)phenyl)methoxy)-2-(morpholinomethyl)-4H-pyran-4-one]	3.7	< 4	19.3	5	< 9	26		IC50 (HCT116; Homo sapiens, HCT-116, 144 h, 0.5% FBS, 6-day treatment): 3.3 µM; fold more active than reference compound CAI in tubulogenesis (HMEC-1 cells; HMEC1 on Matrigel): 4 fold; IC50 (HMEC-1 cells; Homo sapiens, HMEC-1, HMEC1 on Matrigel, 6 to 8 hours, read-out: IC50, tubulogenesis (number of junctions)): 30.8 µM
CCN(CC)C(=O)N1CCN(Cc2cc(=O)c(OCCCCCSc3ccnc4cc(C(F)(F)F)ccc34)co2)CC1 [EHT 5743, 4-((5-(5-(7-(Trifluoromethyl)quinolin-4-ylthio)pentyloxy)-4-oxo-4H-pyran-2-yl)methyl)-N,N-diethylpiperazine-1-carboxamide]			< 10	8.8	< 9	2.4	8	difference of activity in HMEC1 cells as compared to HCT116 cells (HMEC1; MTT 6 days, compounds most active in HCT116): 20 fold; IC50 (MCF7): 1.2 µM
O=c1cc(CN2CCOCC2)occ1OCCCCCSc1ccnc2cc(C(F)(F)F)ccc12 [EHT 7168, 2-Morpholin-4-ylmethyl-5-[5-(7-trifluoromethyl-quinolin-4-ylsulfanyl)-pentyloxy]-4H-pyran-4-one]	4.9			9.8			25.2	IC50 (NIH3T3; Mus musculus, NIH3T3, 16 h): 16.4 ± 3.4 µM; IC50 (NIH 3T3): 12.7 µM
CN1CCN(Cc2cc(=O)c(OCCCCCSc3ccnc4cc(C(F)(F)F)ccc34)co2)CC1 [EHT 7365, 2-(4-Methyl-piperazin-1-ylmethyl)-5-[5-(7-trifluoromethyl-quinolin-4-ylsulfanyl)-pentyloxy]-4H-pyran-4-one]	5.4					6.5	8.3	IC50 (NIH3T3; 16 hours): 6.1 ± 1.1 µM; IC50 (MDA-MB-231 [2]): 3.9 ± 0.8 µM
Cc1[nH]c(/C=C2\C(=O)Nc3ccccc32)c(C)c1CCC(=O)O [SU-6668, reference compound]		18.9	36		22.5	35.7		potency in tubulogenesis assay (HMEC-1 cells; VEGF and FGF free conditions): weakly potent
